From patent US12351555B2, “Process for synthesizing apremilast” (AMGEN INC., priority 2021, dated 2025)

Assay: Moisture sorption analysis (DVS) of crystal Form B of apremilast
Assay type: physicochemical
From the text: FIG. 3B depicts a representative DVS plot of crystal Form B of apremilast.
The crystalline apremilast formed in the disclosed processes can be any crystalline form. Various crystalline apremilast forms are described in detail in PCT Publication No. WO 2009/120167, the disclosure of which is incorporated by reference in its entirety. In various embodiments, the crystalline apremilast formed by the processes disclosed herein can be Form A, Form B, or Form F. In some cases, the crystalline apremilast is Form B. Form B may be characterized by X-ray powder diffraction analysis. In certain embodiments, Form B is characterized by XRPD peaks located at one, two, three, four, five, six, seven, eight, nine, ten, eleven or twelve of the following approximate positions: 10.1, 12.4, 13.5, 15.7, 16.3, 18.1, 20.7, 22.5, 24.7, 26.2, 26.9, 29.1 degrees 2θ. […] In certain embodiments, Form B may be characterized by thermal analysis. In certain embodiments, Form B is characterized by a DSC plot comprising an endothermic event with an onset temperature of about 154° C. In certain embodiments, Form B is characterized by a TGA plot comprising a mass loss of less than about 1%, e.g., about 0.25%, of the total mass of the sample upon heating from about 25° C. to about 140° C. […] In certain embodiments, Form B is anhydrous. In certain embodiments, Form B is unsolvated. In certain embodiments, Form B may be characterized by moisture sorption analysis. […] In certain embodiments, mass gained upon adsorption is lost when the RH is decreased back to about 0% RH.

- stability with respect to humidity: stable with respect to humidity
- XRPD pattern following the adsorption/desorption analysis (after adsorption/desorption analysis): substantially unchanged
- hygroscopicity (moisture sorption analysis): substantially nonhygroscopic
Compound: CCOc1cc(C(CS(C)(=O)=O)N2C(=O)c3cccc(NC(C)=O)c3C2=O)ccc1OC (single isomer, unassigned; (+)) [Form B, (+)-2-[1-(3-ethoxy-4-methoxyphenyl)-2-methylsulfonylethyl]-4-acetylaminoisoindoline-1,3-dione]
